Where two headings read alike, the source gives them in different places.
How the values were obtained:
Acute toxicity test = conditions: mouse, in vivo
Experimental: CD #1 mice (20-30 g) are used for this test. The animals are individualy housed in glass beakers for a 2 hour period of acclimatization without food and water.

in vivo = conditions: mouse, ip
[1] = system: isolation induced aggressive behavior in mice; assay: Inhibition of isolation induced fighting behavior in mice; assay type: in vivo, CD #1 mice; conditions: for ED50: Mus musculus, ip, 0.5 h, read-out: ED50 (dose that suppressed aggressive behavior in 50% of the animals); for inhibition of aggressive behavior (in words): mice
Experimental: 1. Inhibition of Isolation Induced Fighting Behavior in Mice
After this period of confinement, the animals usually develop a marked intraspecific aggressive behavior when they are placed in the same cage.
The compound to be studied is administered i.p. to the selected groups (N=8 pairs/dose×5 doses) and the aggressive behavior is tested again 30 minutes later. […] A one week washout period is allowed between treatments.

[2] = system: exploratory behavior in rats; assay: Inhibition of exploratory behavior in rats (hole poking); assay type: in vivo, Sprague-Dawley rats; conditions: for ED50: Rattus norvegicus, ip, 0.5 h, read-out: dose required to diminish by 50% the exploratory behavior
Experimental: 8. Inhibition of Exploratory Behavior in Rats (Hole Poking).
This test is done with Sprague-Dawley male rats of about 300 g. Activity is evaluated with a […] XYZ activity cage connected to a […] […] DCM-4. A perforated plate (16 holes of 2-5 cm diameter) is placed in the enclosure and on the activity case to register vertical activity. The number of times the rat placed his snout into the holes during a 10 minute period is recorded. The test was started 30 minutes after the interperitoneal injection of the compound to be studied.
The results which are reported in Table 8 are expressed in terms of the dose required to diminish by 50% the exploratory behavior, with reference to animals injected with the carrier only. Diazepam and buspirone are used as standards.

[3] = system: conditioned avoidance response in rats; assay: Inhibition of conditioned avoidance response in rats; assay type: in vivo, Sprague Dawley rats
From the text: 6. Inhibition of Conditioned Avoidance Response in Rats
Male Sprague Dawley rats (200-250 g) are trained to avoid an electric foot shock, by continuously changing room with the appropriate visuals and auditory signals, in an automatic 2-way conditioned avoidance apparatus (Coulbourn Instrument Co.). Only the animals that perform at least a 70% avoidance (3 successive training sessions) are kept for the experiment.
The day of the experiment, the selected animals are submitted to a pre-treatment control session. The compound to be studied is then administered i.p. and the animals are placed back in the apparatus for evaluation 30 minutes later. Diazepam was used as a standard.

[4] = Rotarod neurotoxicity test in mice; conditions: mouse; for TD50 at 0.5 h: in vivo, ip
[5] = system: righting reflex / ethanol narcosis in mice; assay: Potentiation of sleeping time induced by ethanol in mice; assay type: in vivo, CD #1 mice
Experimental: 7. Potentiation of Sleeping Time Induced by Ethanol in Mice
This test was done with male CD #1 mice of 25-35 g. The mice are injected intraperitoneally (8 mice per dose). A subhypnotic dose of ethanol (12 ml/kg of 50% ethanol solution) is administered orally 30 minutes later.
The loss of the righting reflex is evaluated, for each animal, 30 minutes after the administration of the alcohol. It is considered that there is a potentialization of ethanol narcosis if the righting time exceeded 30 seconds.
The results which are reported in Table 7 are expressed in terms of the percentage of animals displaying a loss of the righting reflex versus the administered dose. Chlorpromazine (5 mg/kg i.p.) is used as a standard.

[6] = system: spontaneous motor activity in mice; assay: Inhibition of spontaneous motor activity in mice; assay type: in vivo, CD #1 mice; conditions: for ED50: Mus musculus, ip, 0.5 h
Experimental: 4. Inhibition of Spontaneous Motor Activity in Mice
Female CD #1 mice (20-30 g) are used for this experiment. The effect of the compound to be studied on spontaneous activity was evaluated by an automated […] XYZ system. This system allows the simultaneous quantification of the following parameters:
number of stereotypic movements;
number of vertical movements;
number of clockwise revolutions; and
number of counterclockwise revolutions.
(§1) Two animals are studied simultaneously, one treated and one control. After a 2 hour period of acclimatization to the room, a first activity count of 10 minutes duration is perfomed. The compound to be studied is then administered i.p. and the spontaneous activity is reevaluated 30 minutes later over a period of 10 minutes.

[7] = system: spontaneous motor activity in rats; assay: Inhibition of spontaneous motor activity in rats; assay type: in vivo, Sprague Dawley rats; conditions: for ED50: Rattus norvegicus, ip, 0.5 h, i.p., 30 minutes
Experimental: as §1
5. Inhibition of Spontaneous Motor Activity in Rats
The method is the same as described above for mice, except that because of the size of the animals (Sprague Dawley rats; 300 g), the test and control animals are not evaluated simultaneously, but alternatively.

[8] = Effect on body temperature, buspirone in rats; assay type: in vivo, Sprague Dawley rats
Experimental: Female CD #1 mice (20-30 g) are used. Rectal temperature is recorded before and one hour after s.c. administration of the compound to be studied (N=8/doses×4 doses). The solvent used is sterile water for intravenous injection.
The results which are reported in Table 9 are expressed in terms of the variation of temperature for different doses. Buspirone was tested on Sprague Dawley rats.

[9] = i.p., 30 minutes after administration, probit analysis

CC(C#Cc1cccc(C(F)(F)F)c1)NCc1ccccc1 (centres unmarked) [Compound 17]
LD50 (Acute toxicity test; ip): 366 mg/kg
TD50 at 0.5 h (in vivo): 123 mg/kg
ED50 [1, 9]: 50 mg/kg

C(#Cc1ccccc1)CN1CCCCC1 [Compound 11]
LD50 (Acute toxicity test; ip): 188 mg/kg
TD50 at 0.5 h (in vivo): 132 mg/kg
ED50 [1, 9]: 27 mg/kg

C#CC(C)NC (centres unmarked) [Compound 34]
LD50 (Acute toxicity test; ip, probit analysis): 828 mg/kg
ED50 [1, 9]: 26 mg/kg

CCNCC#Cc1ccccc1 [Compound 27]
LD50 (Acute toxicity test; ip): 98 mg/kg
TD50 at 0.5 h (in vivo): 88 mg/kg
ED50 [1, 9]: 17 mg/kg

CC(N)C#Cc1ccc(C(=O)N(C)C)cc1 (centres unmarked) [Compound 21]
LD50 (Acute toxicity test; ip, probit analysis): < 100 mg/kg

CN1C(=O)CN=C(c2ccccc2)c2cc(Cl)ccc21 [Diazepam]
ED50 [2]: 14.2 ± 5 mg/kg
conditioned avoidance response ([3]; 5 mg/kg i.p.): 57.5%

CC(N)C#Cc1ccc([N+](=O)[O-])cc1 (centres unmarked) [Compound 20]
LD50 (Acute toxicity test; ip): 152 mg/kg
TD50 at 0.5 h (in vivo): ~120 mg/kg
ED50 [1, 9]: 10 mg/kg

FC(F)(F)c1cccc(C#CCNCCc2ccccc2)c1 [Compound 9]
LD50 (Acute toxicity test; ip): 252 mg/kg
TD50 at 0.5 h (in vivo): 126 mg/kg
ED50 [1, 9]: 58 mg/kg

CNC(C)C#Cc1ccccc1 (centres unmarked) [Compound 31]
LD50 (Acute toxicity test; ip, probit analysis): 95 mg/kg
TD50 at 0.5 h [4]: ≥ 95 mg/kg
ED50 [1]: 12 mg/kg

CC(N)C#Cc1ccc(Cl)cc1 (centres unmarked) [Compound 1, 2-Amino-4-(p-chlorophenyl)-3-butyne]
LD50 (Acute toxicity test; ip, probit analysis): 130 mg/kg
TD50 at 0.5 h (in vivo): ~65 mg/kg
ED50 [1, 9]: 12 mg/kg
inhibition of aggressive behavior (in words) ([1]; i.p.): particularly potent inhibitors

CC(N)C#Cc1ccc(C#N)cc1 (centres unmarked) [Compound 2, 2-Amino-4-(p-cyanophenyl)-3-butyne]
LD50 (Acute toxicity test; ip, probit analysis): > 100 mg/kg
TD50 at 0.5 h (in vivo): > 100 mg/kg
ED50 [1, 9]: 8 mg/kg
inhibition of aggressive behavior (in words) ([1]; i.p.): particularly potent inhibitors

CC(C#Cc1ccccc1)NCc1ccccc1 (centres unmarked) [Compound 16]
LD50 (Acute toxicity test; ip): 309 mg/kg
TD50 at 0.5 h (in vivo): 170 mg/kg
ED50 [1, 9]: 101 mg/kg

CN(CC#Cc1cccc(C(F)(F)F)c1)Cc1ccccc1 [Compound 5]
LD50 (Acute toxicity test; ip): 416 mg/kg
TD50 at 0.5 h (in vivo): 334 mg/kg
ED50 [1, 9]: 28 mg/kg

FC(F)(F)c1cccc(C#CCNc2ccco2)c1 [Compound 15]
LD50 (Acute toxicity test; ip): 351 mg/kg
TD50 at 0.5 h (in vivo): 193 mg/kg
ED50 [1, 9]: 19 mg/kg

CC(N)C#Cc1ccc(C(N)=O)cc1 (centres unmarked) [Compound 22]
LD50 (Acute toxicity test; ip, probit analysis): > 100 mg/kg

CC(C#Cc1ccccc1)Nc1ccco1 (centres unmarked) [Compound 18]
LD50 (Acute toxicity test; ip, probit analysis): ~300 mg/kg
ED50 [1, 9]: 64 mg/kg

O=C1CC2(CCCC2)CC(=O)N1CCCCN1CCN(c2ncccn2)CC1 [Buspirone, reference compound]
LD50 (Acute toxicity test; po, read-out: LD50): 622 mg/kg
potentiation of ethanol (in words) ([5]; subhypnotic dose of ethanol, mice): more effective than compound N^o 3
TD50 ([4]; rotarod, po): 135 mg/kg
inhibition of spontaneous motor activity (in words) [6]: inhibit spontaneous motor activity in mice and rats
ED50 ([6]; i.p., 30 minutes, read-out: ED50, clockwise revolutions): 17.9 ± 6.9 mg/kg
ED50 ([6]; i.p., 30 minutes, read-out: ED50, horizontal activity): 20.5 ± 16.7 mg/kg
ED50 ([6]; i.p., 30 minutes, read-out: ED50, movement time): 19.9 ± 8.9 mg/kg
ED50 ([6]; i.p., 30 minutes, read-out: ED50, stereotypy time): 22.7 ± 13.7 mg/kg
ED50 ([6]; i.p., 30 minutes, read-out: ED50, total distance): 22.6 ± 15.8 mg/kg
ED50, counterclockwise revolutions ([6]; i.p., 30 minutes): no dose-response
ED50, number of movements ([6]; i.p., 30 minutes): no dose-response
ED50, number of stereotypic movements ([6]; i.p., 30 minutes): no dose-response
ED50, vertical activity ([6]; i.p., 30 minutes): no dose-response
ED50, vertical movements ([6]; i.p., 30 minutes): no dose-response
ED50, vertical time ([6]; i.p., 30 minutes): no dose-response
ED50 ([2]; i.p., 30 minutes, rats): 2.8 ± 0.6 mg/kg
inhibition of exploratory behavior (in words) ([2]; rats): more potent, in this respect, than diazepam but they rapidly lose their ability to produce this effect after the first administration
inhibition of conditioned avoidance response (in words) ([3]; rats): inhibit conditioned avoidance in rats, but are less active than diazepam
inhibition of spontaneous motor activity (in words) [7]: inhibit spontaneous motor activity in mice and rats
ED50 ([7]; read-out: ED50, clockwise revolutions): 2.3 ± 0.9 mg/kg
ED50 ([7]; read-out: ED50, counterclockwise revolutions): 2.9 ± 0.7 mg/kg
ED50 ([7]; read-out: ED50, horizontal activity): 2.7 ± 0.8 mg/kg
ED50 ([7]; read-out: ED50, movement time): 3.2 ± 0.6 mg/kg
ED50 ([7]; read-out: ED50, number of movements): 5.3 ± 0.9 mg/kg
ED50 ([7]; read-out: ED50, number of stereotypic movements): 3.1 ± 0.8 mg/kg
ED50 ([7]; read-out: ED50, stereotypy time): 1.7 ± 0.6 mg/kg
ED50 ([7]; read-out: ED50, total distance): 2.8 ± 0.7 mg/kg
Temp. Difference from Control ([8]; dose 10, Sprague Dawley rats): -2.7
Temp. Difference from Control ([8]; dose 30, Sprague Dawley rats): -3.6
Temp. Difference from Control ([8]; dose 100, Sprague Dawley rats): -5.8

CC(N)C#Cc1cccc(Cl)c1 (centres unmarked) [Compound 24]
LD50 (Acute toxicity test; ip): > 100 mg/kg
TD50 at 0.5 h (in vivo): 50 mg/kg

CC(C#Cc1cccc(C(F)(F)F)c1)N(C)C (centres unmarked) [Compound 7]
LD50 (Acute toxicity test; ip): 220 mg/kg
TD50 at 0.5 h (in vivo): 153 mg/kg
ED50 [1, 9]: 38 mg/kg

COc1ccc(C#CC(C)N)cc1 (centres unmarked) [Compound 23]
LD50 (Acute toxicity test; ip, probit analysis): > 100 mg/kg
ED50 [1, 9]: 24 mg/kg

NCC#Cc1ccccc1 [Compound 26]
LD50 (Acute toxicity test; ip, probit analysis): ≥ 100 mg/kg

CN(C)CCCN1c2ccccc2Sc2ccc(Cl)cc21 [Chlorpromazine, reference compound]
percentage of animals displaying a loss of the righting reflex ([5]; 5 mg/kg i.p., with ethanol): 100%

CCC(N)C#Cc1ccccc1 (centres unmarked) [Compound 25]
LD50 (Acute toxicity test; ip): 84 mg/kg
TD50 at 0.5 h (in vivo): ≥ 84 mg/kg
ED50 [1, 9]: 16 mg/kg

C#CC(C)N(C)C (centres unmarked) [Compound 35]
ED50 [1, 9]: 92 mg/kg

CC(N)C#Cc1ccccc1 (centres unmarked) [Compound 30]
LD50 (Acute toxicity test; ip): 66 mg/kg
TD50 at 0.5 h (in vivo): ~50 mg/kg
ED50 [1, 9]: 15 mg/kg

CC(C)NC(C)C#Cc1ccccc1 (centres unmarked) [Compound 13]
LD50 (Acute toxicity test; ip, probit analysis): 120 mg/kg
ED50 [1, 9]: 27 mg/kg

CCNC(C)C#Cc1ccccc1 (centres unmarked) [Compound 32]
LD50 (Acute toxicity test; ip, probit analysis): 120 mg/kg
TD50 at 0.5 h [4]: ≥ 120 mg/kg
ED50 [1]: 23 mg/kg

CCN(CC)C(C)C#Cc1ccccc1 (centres unmarked) [Compound 33]
LD50 (Acute toxicity test; ip): 88 mg/kg
TD50 at 0.5 h (in vivo): ≥ 88 mg/kg
ED50 [1, 9]: 44 mg/kg

C#CC(C)(C)N [Compound 36]
LD50 (Acute toxicity test; ip): 779 mg/kg
TD50 at 0.5 h (in vivo): 391 mg/kg
ED50 [1, 9]: 176 mg/kg

CC(C#Cc1cccc(C(F)(F)F)c1)Nc1ccco1 (centres unmarked) [Compound 19]
ED50 [1, 9]: 73 mg/kg
